# Measurements from patent US20080221083A1, “Heterobicyclic metalloprotease inhibitors” (priority 2006, published 2008).
# Assays:
# [1] = biological target: T1, catalytic domain of MMP-13 enzyme (Homo sapiens, UniProt P45452); experiment: Assay for determining MMP-13 inhibition; format: biochemical; conditions: MMP-13 fluorescent substrate, pH 7.5; read-out: Summary of MMP-13 Activity for Compounds (IC50 MMP-13), Group
# T1 construct: catalytic domain of MMP-13 enzyme (produced by Alantos or commercially available from Invitek (Berlin), Cat. No. 30100812); purchased Invitek (Berlin) 30100812
# Protocol: Assay for Determining MMP-13 Inhibition
# The typical assay for MMP-13 activity is carried out in assay buffer comprised of 50 mM Tris, pH 7.5, 150 mM NaCl, 5 mM CaCl2 and 0.05% Brij-35. Different concentrations of tested compounds are prepared in assay buffer in 50 μl aliquots. 10 μl of a 50 nM stock solution of catalytic domain of MMP-13 enzyme (produced by Alantos or commercially available from Invitek (Berlin), Cat. No. 30100812) is added to the compound solution. The mixture of enzyme and compound in assay buffer is thoroughly mixed and incubated for 10 min at room temperature. Upon the completion of incubation, the assay is started by addition of 40 μl of a 12.5 μM stock solution of MMP-13 fluorescent substrate (Calbiochem, Cat. No. 444235). The time-dependent increase in fluorescence is measured at the 320 nm excitation and 390 nm emission by automatic plate multireader. The IC50 values are calculated from the initial reaction rates.
# [2] = biological target: T2, catalytic domain of MMP-3 enzyme (Homo sapiens, UniProt P08254); experiment: Assay for determining MMP-3 inhibition; format: biochemical; conditions: fluorescent substrate NFF-3, pH 6.0; read-out: Summary of MMP-3 Activity for Compounds (IC50 MMP-3), Group
# T2 construct: the catalytic domain of MMP-3 enzyme (Biomol, Cat. No. SE-109); purchased Biomol SE-109
# Protocol: Assay for Determining MMP-3 Inhibition
# The typical assay for MMP-3 activity is carried out in assay buffer comprised of 50 mM MES, pH 6.0, 10 mM CaCl2 and 0.05% Brij-35. Different concentrations of tested compounds are prepared in assay buffer in 50 μl aliquots. 10 μl of a 100 nM stock solution of the catalytic domain of MMP-3 enzyme (Biomol, Cat. No. SE-109) is added to the compound solution. The mixture of enzyme and compound in assay buffer is thoroughly mixed and incubated for 10 min at room temperature. Upon the completion of incubation, the assay is started by addition of 40 μl of a 12.5 μM stock solution of NFF-3 fluorescent substrate (Calbiochem, Cat. No. 480455). The time-dependent increase in fluorescence is measured at the 330 nm excitation and 390 nm emission by an automatic plate multireader. The IC50 values are calculated from the initial reaction rates.
# T2 sequence (P08254 100-272 limits assumed): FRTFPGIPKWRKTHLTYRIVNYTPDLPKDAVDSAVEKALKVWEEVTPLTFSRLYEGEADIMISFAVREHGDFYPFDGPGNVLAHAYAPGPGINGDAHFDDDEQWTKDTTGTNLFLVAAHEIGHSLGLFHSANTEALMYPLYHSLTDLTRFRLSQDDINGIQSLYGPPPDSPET
SMILES,IC50 [1] [nM],IC50 [2] [nM]
O=C(NCc1ccccc1)c1c[nH]c2c(C(=O)NCc3ccc(F)cc3)ncnc12 [Example 6],101 to 20000,3 to 100
O=C1COc2ccc(CNC(=O)c3ncnc4c(C(=O)NCc5ccccc5)c[nH]c34)cc2N1 [Example 34],101 to 20000,3 to 100
O=C1COc2ccc(CNC(=O)c3ncnc4c(C(=O)NCC5(O)CCCCC5)c[nH]c34)cc2N1 [Example 40],101 to 20000,101 to 20000
O=C1COc2ccc(CNC(=O)c3ncnc4c(C(=O)N5CCC(O)CC5)c[nH]c34)cc2N1 [Example 42],,101 to 20000
COc1cccc(CNC(=O)c2c[nH]c3c(C(=O)NCc4ccc5c(c4)NC(=O)CO5)ncnc23)c1 [Example 45],101 to 20000,101 to 20000
CN(Cc1ccccc1)C(=O)c1c[nH]c2c(C(=O)NCc3ccc4c(c3)NC(=O)CO4)ncnc12 [Example 46],101 to 20000,3 to 100
CCCCN(CC)C(=O)c1c[nH]c2c(C(=O)NCc3ccc4c(c3)NC(=O)CO4)ncnc12 [Example 47],,3 to 100
CCCN(CCC)C(=O)c1c[nH]c2c(C(=O)NCc3ccc4c(c3)NC(=O)CO4)ncnc12 [Example 48],,3 to 100
CC(C)(C)OC(=O)N1CC2CC1CN2C(=O)c1c[nH]c2c(C(=O)NCc3ccc4c(c3)NC(=O)CO4)ncnc12 (stereo not shown) [Example 50],101 to 20000,3 to 100
COC(=O)[C@@H]1C[C@@H](O)CN1C(=O)c1c[nH]c2c(C(=O)NCc3ccc4c(c3)NC(=O)CO4)ncnc12 [Example 52],101 to 20000,3 to 100
O=C1CN(C(=O)c2c[nH]c3c(C(=O)NCc4ccc5c(c4)NC(=O)CO5)ncnc23)CCN1 [Example 62],101 to 20000,3 to 100
CCOC(=O)CC1C(=O)NCCN1C(=O)c1c[nH]c2c(C(=O)NCc3ccc4c(c3)NC(=O)CO4)ncnc12 (stereo not shown) [Example 63],,101 to 20000

# Now from value to compound:
IC50 [1] [nM],IC50 [2] [nM],SMILES
101 to 20000,101 to 20000,CCC(CC)NC(=O)c1c[nH]c2c(C(=O)NCc3ccc4c(c3)NC(=O)CO4)ncnc12 [Example 31]
,101 to 20000,CC(C)NC(=O)c1c[nH]c2c(C(=O)NCc3ccc4c(c3)NC(=O)CO4)ncnc12 [Example 32]
,3 to 100,O=C1COc2ccc(CNC(=O)c3ncnc4c(C(=O)NC5CCCC5)c[nH]c34)cc2N1 [Example 33]
101 to 20000,3 to 100,O=C1COc2ccc(CNC(=O)c3ncnc4c(C(=O)NCC5CCCCC5)c[nH]c34)cc2N1 [Example 35]
,101 to 20000,CNC(=O)c1c[nH]c2c(C(=O)NCc3ccc4c(c3)NC(=O)CO4)ncnc12 [Example 41]
101 to 20000,3 to 100,CC(C)(CO)NC(=O)c1c[nH]c2c(C(=O)NCc3ccc4c(c3)NC(=O)CO4)ncnc12 [Example 51]
,101 to 20000,C[C@@H](NC(=O)c1c[nH]c2c(C(=O)NCc3ccc4c(c3)NC(=O)CO4)ncnc12)c1ccccc1 [Example 60]
,101 to 20000,C[C@H](NC(=O)c1c[nH]c2c(C(=O)NCc3ccc4c(c3)NC(=O)CO4)ncnc12)c1ccccc1 [Example 61]
